In US6054435A, “6-O-substituted macrolides having antibacterial activity” (priority 1999, dated 2000):
Converted amounts (≈) assume the structure as drawn.

Tests used:
Assay in all cases: in vitro antibacterial activity (MIC), agar dilution
Type in all cases: cell-based
Candida albicans CCH 442 = settings: organism code TT; BHI agar, 35-37° C., 20 to 24 hours; unit assumed
Experimental: (§1) Representative compounds of the present invention were assayed in vitro for antibacterial activity as follows: Twelve petri dishes containing successive aqueous dilutions of the test compound mixed with 10 mL of sterilized Brain Heart Infusion (BHI) agar (Difco 0418-01-5) were prepared. Each plate was inoculated with 1:100 (or 1:10 for slow-growing strains, such as Micrococcus and Streptococcus) dilutions of up to 32 different microorganisms, using a Steers replicator block. […] In addition, a control plate, using BHI agar containing no test compound, was prepared and incubated at the beginning and end of each test.
(§2) An additional plate containing a compound having known susceptibility patterns for the organisms being tested and belonging to the same antibiotic class as the test compound was also prepared and incubated as a further control, as well as to provide test-to-test comparability.
(§3) After incubation, each plate was visually inspected. The minimum inhibitory concentration (MIC) was defined as the lowest concentration of drug yielding no growth, a slight haze, or sparsely isolated colonies on the inoculum spot as compared to the growth control.

[1] = tested on: Enterococcus faecium ATCC 8043; settings: organism code II; BHI agar, 35-37° C., 20 to 24 hours; unit assumed
Experimental: as §1, §2, §3

Escherichia coli DC-2 = settings: organism code SS; BHI agar, 35-37° C., 20 to 24 hours; unit assumed
Experimental: as §1, §2, §3

Escherichia coli JUHL = settings: organism code QQ; BHI agar, 35-37° C., 20 to 24 hours; unit assumed
Experimental: as §1, §2, §3

Escherichia coli SS = settings: organism code RR; BHI agar, 35-37° C., 20 to 24 hours; unit assumed
Experimental: as §1, §2, §3

[2] = tested on: Haemophilis Influenzae DILL AMP R; settings: organism code WW; BHI agar, 35-37° C., 20 to 24 hours; unit assumed
Experimental: as §1, §2, §3

[3] = tested on: Micrococcus luteus ATCC 4698; settings: organism code PP; BHI agar, 35-37° C., 20 to 24 hours; unit assumed
Experimental: as §1, §2, §3

[4] = tested on: Micrococcus luteus ATCC 9341; settings: organism code OO; BHI agar, 35-37° C., 20 to 24 hours; unit assumed
Experimental: as §1, §2, §3

[5] = tested on: Mycobacterium smegmatis ATCC 114; settings: organism code UU; BHI agar, 35-37° C., 20 to 24 hours; unit assumed
Experimental: as §1, §2, §3

[6] = tested on: Nocardia Asteroides ATCC9970; settings: organism code VV; BHI agar, 35-37° C., 20 to 24 hours; unit assumed
Experimental: as §1, §2, §3

[7] = tested on: Staphylococcus aureus 1775; settings: organism code GG; BHI agar, 35-37° C., 20 to 24 hours; unit assumed
Experimental: as §1, §2, §3

[8] = tested on: Staphylococcus aureus A-5278; settings: organism code CC; BHI agar, 35-37° C., 20 to 24 hours; unit assumed
Experimental: as §1, §2, §3

[9] = tested on: Staphylococcus aureus A5177; settings: organism code BB; BHI agar, 35-37° C., 20 to 24 hours; unit assumed
Experimental: as §1, §2, §3

[10] = tested on: Staphylococcus aureus ATCC 6538P; settings: organism code AA; BHI agar, 35-37° C., 20 to 24 hours; unit assumed
Experimental: as §1, §2, §3

[11] = tested on: Staphylococcus aureus CMX 553; settings: organism code FF; BHI agar, 35-37° C., 20 to 24 hours; unit assumed
Experimental: as §1, §2, §3

[12] = tested on: Staphylococcus aureus CMX 642A; settings: organism code DD; BHI agar, 35-37° C., 20 to 24 hours; unit assumed
Experimental: as §1, §2, §3

[13] = tested on: Staphylococcus aureus NCTC10649M; settings: organism code EE; BHI agar, 35-37° C., 20 to 24 hours; unit assumed
Experimental: as §1, §2, §3

[14] = tested on: Staphylococcus epidermidis 3519; settings: organism code HH; BHI agar, 35-37° C., 20 to 24 hours; unit assumed
Experimental: as §1, §2, §3

[15] = tested on: Streptococcus Pneumonia 5979; settings: organism code ZZ; BHI agar, 35-37° C., 20 to 24 hours; unit assumed
Experimental: as §1, §2, §3

[16] = tested on: Streptococcus Pneumonia ATCC6303; settings: organism code XX; BHI agar, 35-37° C., 20 to 24 hours; unit assumed
Experimental: as §1, §2, §3

[17] = tested on: Streptococcus Pneumonia GYR 1171; settings: organism code YY; BHI agar, 35-37° C., 20 to 24 hours; unit assumed
Experimental: as §1, §2, §3

[18] = tested on: Streptococcus agalactiae CMX 508; settings: organism code KK; BHI agar, 35-37° C., 20 to 24 hours; unit assumed
Experimental: as §1, §2, §3

[19] = tested on: Streptococcus bovis A-5169; settings: organism code JJ; BHI agar, 35-37° C., 20 to 24 hours; unit assumed
Experimental: as §1, §2, §3

[20] = tested on: Streptococcus pyogenes 930; settings: organism code MM; BHI agar, 35-37° C., 20 to 24 hours; unit assumed
Experimental: as §1, §2, §3

[21] = tested on: Streptococcus pyogenes EES61; settings: organism code LL; BHI agar, 35-37° C., 20 to 24 hours; unit assumed
Experimental: as §1, §2, §3

[22] = tested on: Streptococcus pyogenes PIU 2548; settings: organism code NN; BHI agar, 35-37° C., 20 to 24 hours; unit assumed
Experimental: as §1, §2, §3

SMILES | MIC (Candida albicans CCH 442) [µg/mL] | MIC [1] [µg/mL] | MIC (Escherichia coli DC-2) [µg/mL] | MIC (Escherichia coli JUHL) [µg/mL] | MIC (Escherichia coli SS) [µg/mL] | MIC [2] [µg/mL] | MIC [3] [µg/mL] | MIC [4] [µg/mL] | MIC [5] [µg/mL] | MIC [6] [µg/mL] | MIC [7] [µg/mL] | MIC [8] [µg/mL] | MIC [9] [µg/mL] | MIC [10] [µg/mL] | MIC [11] [µg/mL] | MIC [12] [µg/mL] | MIC [13] [µg/mL] | MIC [14] [µg/mL] | MIC [15] [µg/mL] | MIC [16] [µg/mL] | further results
CC[C@H]1OC(=O)[C@H](C)C(=O)[C@H](C)[C@@H](O[C@@H]2O[C@H](C)C[C@H](N(C)C)[C@H]2O)[C@](C)(OC/C=C/c2cncc(-c3ccccn3)c2)C[C@@H](C)C(=O)[C@H](C)[C@H]2NC(=O)O[C@@]21C [Example 43] | > 100 | 0.05 (≈ 0.0631 µM) | 25 (≈ 31.5 µM) | 50 (≈ 63.1 µM) | 0.39 (≈ 0.492 µM) | 2 (≈ 2.52 µM) | 0.2 (≈ 0.252 µM) | 0.02 (≈ 0.0252 µM) | 0.78 (≈ 0.984 µM) | 0.05 (≈ 0.0631 µM) | > 100 | > 100 | 0.05 (≈ 0.0631 µM) | 0.05 (≈ 0.0631 µM) | 0.05 (≈ 0.0631 µM) | 0.1 (≈ 0.126 µM) | 0.2 (≈ 0.252 µM) | 0.1 (≈ 0.126 µM) | 64 (≈ 80.7 µM) | ≤ 0.004 | MIC [17]: ≤ 0.004 µg/mL; MIC [18]: 0.05 µg/mL (≈ 0.0631 µM); MIC [19]: 0.02 µg/mL (≈ 0.0252 µM); MIC [20]: 25 µg/mL (≈ 31.5 µM); MIC [21]: 0.02 µg/mL (≈ 0.0252 µM); MIC [22]: 0.2 µg/mL (≈ 0.252 µM)
CC[C@H]1OC(=O)[C@H](C)C(=O)[C@H](C)[C@@H](O[C@@H]2O[C@H](C)C[C@H](N(C)C)[C@H]2O)[C@](C)(OC/C=C/c2cncc(-c3cnc4ccccc4c3)c2)C[C@@H](C)C(=O)[C@H](C)[C@H]2NC(=O)O[C@@]21C [Example 44] | > 100 | 0.05 (≈ 0.0593 µM) | 50 (≈ 59.3 µM) | 100 (≈ 119 µM) | 0.2 (≈ 0.237 µM) | 2 (≈ 2.37 µM) | 0.1 (≈ 0.119 µM) | 0.01 (≈ 0.0119 µM) | 0.39 (≈ 0.463 µM) | 0.1 (≈ 0.119 µM) | > 100 | > 100 | 0.1 (≈ 0.119 µM) | 0.1 (≈ 0.119 µM) | 0.05 (≈ 0.0593 µM) | 0.1 (≈ 0.119 µM) | 0.2 (≈ 0.237 µM) | 0.1 (≈ 0.119 µM) | 8 (≈ 9.49 µM) | ≤ 0.004 | MIC [17]: ≤ 0.004 µg/mL; MIC [18]: 0.05 µg/mL (≈ 0.0593 µM); MIC [19]: 0.01 µg/mL (≈ 0.0119 µM); MIC [20]: 6.2 µg/mL (≈ 7.35 µM); MIC [21]: 0.01 µg/mL (≈ 0.0119 µM); MIC [22]: 0.1 µg/mL (≈ 0.119 µM)
